Laboratory results reported in patent US12233161B1, “Lipids and lipid nanoparticle formulations” (LONGUIDE BIOPHARMA CORPORATION, priority 2024, dated 2025).

Columns and labels:
mice = test: In vivo delivery of FLuc-mRNA lipid nanoparticles in mice, in vivo imaging (IVIS); settings: DMG-PEG2000:DSPC:Chol:compound 1.40:11.15:38.95:48.50, N/P 30; for IVIS: Fluc-mRNA
In short: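 Mice (n=3) received about 75 μL FLuc-mRNA LNP per mouse intramuscularly (rectus femoris), intravenously (tail vein), intraperitoneally or subcutaneously (back). After injection, D-luciferin (200 μL, 15 mg/mL) was given i.p. 10-15 min before IVIS imaging.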

[1] = Particle size and PDI of nucleic acid lipid nanoparticle preparations by dynamic light scattering; format: physicochemical; settings: DMG-PEG2000:DSPC:Chol:compound 1.40:11.15:38.95:48.50, N/P 30
In short: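 Size read by DLS after diluting the LNP preparation (approx. 0.04 mg/mL mRNA) in ultrapure water with gentle pipette mixing. The same sample, recovered and diluted further with water, was then used for zeta potential measurement.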

[2] = Potential characterization of nucleic acid lipid nanoparticle preparations; format: physicochemical; settings: DMG-PEG2000:DSPC:Chol:compound 1.40:11.15:38.95:48.50, N/P 30
Description: 20 μL of the nucleic acid lipid nanoparticle solution (containing about 0.04 mg/mL mRNA) was taken and added with 780 μL of ultrapure water, used a pipette tip to gently blow and mix, and the potential of the nanopreparation was detected by Malvern particle sizer (model ZEN3700).
27.5 μL nucleic acid lipid nanoparticle solution (containing about 0.04 mg/mL mRNA) was taken and added with 200 μL ultrapure water. A pipette tip was used to gently blow the sample and mix well. The particle size of the nanopreparation was detected by Malvern Dynamic Light Scattering Instrument (Malvern Instruments Ltd., ZEN3700, UK). After the detection, the sample was recovered to an EP tube, and 600 μL of ultrapure water was added, gently blown with a pipette tip, and the potential of the nanopreparation was measured by a Malvern particle size meter.

PDI [1] | Particle size (nm) [1] [nm] | Zeta potential (mV) [2] [mV] | SMILES | IVIS (mice; IM) | IVIS (mice; IV, body) | % of organ targeting (mice; IV, liver) [%] | IVIS (mice; IV, liver) | % of organ targeting (mice; IV, lung) [%] | IVIS (mice; IV, lung) | % of organ targeting (mice; IV, spleen) [%] | IVIS (mice; IV, spleen) | IVIS (mice; IV, organ not given)
0.18 | 137.37 | 14.13 | CCCCCCCCCCNC(=O)C(O)CN(CCCN(CCCN(CC(O)C(=O)NCCCCCCCCCC)CC(O)C(=O)NCCCCCCCCCC)C(CO)CO)CC(O)C(=O)NCCCCCCCCCC (stereo not drawn) [Compound L0287] | 1.81E+06 | 1.89E+07 | 34.55 | 3.26E+06 | 25.98 | 2.45E+06 | 39.46 | 3.72E+06 | –
0.12 | 108.77 | 12.50 | CCCCCCCCCCCCNC(=O)C(O)CNCCCN(C)CCCN(CC(O)C(=O)NCCCCCCCCCCCC)CC(O)C(=O)NCCCCCCCCCCCC (stereo not drawn) [Compound L0288] | 1.45E+05 | 6.03E+06 | 5.74 | 5.25E+05 | 78.38 | 7.18E+06 | 15.88 | 1.45E+06 | –
0.09 | 132.40 | 11.00 | CCCCCCCCCCCCNC(=O)C(O)CNCCCN(C)CCCNCC(O)C(=O)NCCCCCCCCCCCC (stereo not drawn) [Compound L0289] | 1.24E+05 | – | – | – | – | – | – | – | 1.63E+05
